# Assay results taken from patent publication US20220313728A1 (priority 2021, published 2022).
# Entries after “also recorded” stand apart in the source; their conditions may differ.
# Tests used:
# [1] = test system: patients with severe TRMD; test: Phase 2 double-blind randomized placebo-controlled crossover trial, single 1-hour inhalation; Hamilton Depression Rating Scale (HDRS-21, primary outcome); type: in vivo, human; conditions: for Estimated difference between 25% and placebo (HDRS-21) / Estimated difference between 50% and placebo (HDRS-21): single 1-hour inhalation; for Difference vs placebo (HDRS-21): 2 weeks, following a single treatment; for Estimated difference between 50% and 25% (HDRS-21): 50% vs 25% nitrous oxide; for Patients in remission (HDRS ≤7 points) / Patients with treatment response (reduction in HDRS-21 points ≥50%): pre-treatment HDRS-21 >19; for Estimated difference between placebo and the combined 25% and 50% groups (HDRS-21): combined 25% and 50% nitrous oxide
# From the text: The study was a single-center, double-blind, randomized placebo-controlled crossover trial. All subjects underwent three one-hour inhalation sessions in random order, each separated by at least 4 weeks. The sessions included: placebo (0% N20), 25% N20, and 50% N20 balanced with air/oxygen. Blinding was executed by separating locations and teams for inhalation treatments and psychiatric evaluations. Only the anesthesia team administering the inhalation treatments was aware of study group assignment; all other participants, including patients and raters, were blinded. Likewise, the study setup was identical for all sessions, and gas flow meters were concealed, making inadvertent unblinding unlikely. The study was approved by the Washington University in St. Louis Institutional Review Board, and all patients provided written, informed consent. The trial was registered at clinicaltrials.gov (NCT03283670).
# Patients were recruited from an existing database of TRMD patients identified through participation in a secondary referral clinic for TRMD at Washington University Department of Psychiatry, as well as from the “Volunteers for Health” patient pool (individuals with various medical/psychiatric conditions who volunteer to participate in clinical research) within Washington University School of Medicine. […] Patients were instructed to continue their current standard of care MDD treatment and to maintain a stable psychotropic medication dosage or psychotherapy regimen for 4 weeks prior to initiation of the study and throughout the study. Further, patients were instructed not to modify their antidepressant treatments during the three month course of the trial (i.e., discouraged from adding new antidepressants or modifying existing antidepressant dosages).
# Following the in-person screen, each of the three treatment sessions consisted of […]: pre-inhalation mood assessment, inhalation, and post-inhalation follow-up sessions at 22-28 hours, 1 week, and 2 weeks. An additional assessment was completed 4 weeks following the final inhalation treatment.
# All three inhalation sessions were scheduled for one hour. […] Except for the choice of inhalational gas admixture, treatment sessions were otherwise identical. The gas mix was administered via a standard anesthesia facemask through tubing connected to the anesthesia machine or an FDA-approved Porter/Praxair MXR breathing circuit. A small sample connector line was inserted into the facemask allowing the measurement of inhaled and exhaled gas concentrations. […] Patients were monitored during and after the treatment according to American Society of Anesthesiologists standards which include continuous 3-lead ECG, pulse oximetry, non-invasive blood pressure, and end tidal CO2 measurement under the supervision of an attending-level anesthesiologist. After the one-hour treatment session, patients were monitored in a recovery room for up to one hour at which time a study team physician determined whether the patient met criteria for discharge.
# Data were collected at (a) baseline (prior to each inhalation session), (b) 2-hours, (c) 24 hours, (d) 1 week, and (e) 2 weeks after inhalation. Efficacy of the inhalation treatment on mood was measured using the following: Hamilton Depression Rating Scale 21-item (HDRS-21; primary outcome); Montgomery-Asberg Depression Rating Scale (MADRS); Quick Inventory of Depressive Symptomology-Self Report (QIDS-SR); and the Profile of Mood States 2nd Edition (POMS-2). Other behavioral assessments included an assessment of dissociation, the Clinical Administered Dissociative States Scale 28-item (CADSS-28); and an assessment for the emergence of psychosis, the Brief Psychiatric Rating Scale 18-item (BPRS-18). These mood and behavioral assessments were performed by a blinded member of the psychiatry study team. Additionally, adequacy of the blind was assessed by a Blinding Questionnaire given after completion of each inhalation session.
# [2] = test system: patients with severe TRMD; test: Same trial; Montgomery-Asberg Depression Rating Scale (MADRS); type: in vivo, human; conditions: 25% nitrous oxide
# From the text: (§1) The trial was registered at clinicaltrials.gov (NCT03283670).
# (§2) Patients were recruited from an existing database of TRMD patients identified through participation in a secondary referral clinic for TRMD at Washington University Department of Psychiatry, as well as from the “Volunteers for Health” patient pool (individuals with various medical/psychiatric conditions who volunteer to participate in clinical research) within Washington University School of Medicine. Inclusion criteria were a) adults 18-75 years of age; b) current diagnosis of unipolar major depressive disorder (MDD) without psychosis as confirmed by the Mini International Neuropsychiatric Interview; c) a score of ≥19 on the Montgomery-Asberg Depression Rating Scale (MADRS); d) documented lifetime failure to respond to ≥3 adequate dose/duration antidepressant treatment trials, including ≥1 antidepressant medication failure(s) in the current depressive episode; and e) good command of the English language. […] Patients were instructed to continue their current standard of care MDD treatment and to maintain a stable psychotropic medication dosage or psychotherapy regimen for 4 weeks prior to initiation of the study and throughout the study. […]
# [3] = test system: patients with severe TRMD; test: Same trial; Quick Inventory of Depressive Symptomology-Self Report (QIDS-SR); type: in vivo, human
# From the text: as §1, §2
# [4] = test system: patients with TRMD; conditions: 50% nitrous oxide, one one-hour inhalation; cited from earlier work
# [5] = after 50% nitrous oxide, 5/12 patients
compound,measurement,setting,value
[N-]=[N+]=O [nitrous oxide],Estimated difference between 25% and placebo (HDRS-21),"[1]; 25% nitrous oxide, 2 hours",−0.75 points
same,Estimated difference between 25% and placebo (HDRS-21),"[1]; 25% nitrous oxide, 24 hours",−1.41 points
same,Estimated difference between 25% and placebo (HDRS-21),"[1]; 25% nitrous oxide, week 1",−4.35 points
same,Estimated difference between 25% and placebo (HDRS-21),"[1]; 25% nitrous oxide, week 2",−5.19 points
same,Difference vs placebo (HDRS-21),[1]; 25% nitrous oxide,−5.19 units
same,"Effect size d, 25% vs placebo (HDRS-21)","[1]; 25% nitrous oxide, 2 hours",0.16
same,"Effect size d, 25% vs placebo (HDRS-21)","[1]; 25% nitrous oxide, 24 hours",0.21
same,"Effect size d, 25% vs placebo (HDRS-21)","[1]; 25% nitrous oxide, week 1",0.38
same,"Effect size d, 25% vs placebo (HDRS-21)","[1]; 25% nitrous oxide, week 2",0.62
same,Estimated difference between 50% and placebo (HDRS-21),"[1]; 50% nitrous oxide, 2 hours",−0.87 points
same,Estimated difference between 50% and placebo (HDRS-21),"[1]; 50% nitrous oxide, 24 hours",−1.93 points
same,Estimated difference between 50% and placebo (HDRS-21),"[1]; 50% nitrous oxide, week 1",−2.44 points
same,Estimated difference between 50% and placebo (HDRS-21),"[1]; 50% nitrous oxide, week 2",−7.00 points
same,Difference vs placebo (HDRS-21),[1]; 50% nitrous oxide,−7.00 HDRS-21 units
same,"Effect size d, 50% vs placebo (HDRS-21)","[1]; 50% nitrous oxide, 2 hours",0.29
same,"Effect size d, 50% vs placebo (HDRS-21)","[1]; 50% nitrous oxide, 24 hours",0.32
same,"Effect size d, 50% vs placebo (HDRS-21)","[1]; 50% nitrous oxide, week 1",0.35
same,"Effect size d, 50% vs placebo (HDRS-21)","[1]; 50% nitrous oxide, week 2",0.85
same,Estimated difference between 50% and 25% (HDRS-21),[1]; 2 hours,0.11 points
same,Estimated difference between 50% and 25% (HDRS-21),[1]; 24 hours,0.42 points
same,Estimated difference between 50% and 25% (HDRS-21),[1]; week 1,1.91 points
same,Estimated difference between 50% and 25% (HDRS-21),[1]; week 2,−1.67 points
same,Patients in remission (HDRS ≤7 points),"[1]; after 25% nitrous oxide, 2/9 patients",22.2%
same,Patients with treatment response (reduction in HDRS-21 points ≥50%),"[1]; after 25% nitrous oxide, 3/9 patients",33.3%
same,Patients in remission (HDRS ≤7 points),[1]; [5],41.7%
same,Patients with treatment response (reduction in HDRS-21 points ≥50%),[1]; [5],41.7%
same,Estimated difference between placebo and the combined 25% and 50% groups (HDRS-21),[1]; 2 hours,−0.81 points
same,Estimated difference between placebo and the combined 25% and 50% groups (HDRS-21),[1]; 24 hours,−1.67 points
same,Estimated difference between placebo and the combined 25% and 50% groups (HDRS-21),[1]; week 1,−3.35 points
same,Estimated difference between placebo and the combined 25% and 50% groups (HDRS-21),[1]; week 2,−6.13 points
same,Median HDRS-21 score at study completion,"[1]; entire 3-month course (25%, 50% nitrous oxide and placebo sessions), completers n=20, baseline median 20.5",8.5 (IQR 2.0-16.0)
same,Median change in HDRS-21 from baseline to study completion,"[1]; entire 3-month course (25%, 50% nitrous oxide and placebo sessions), n=20, IQR −3.3 to −14.0",−11.0 points
same,Patients in remission at study completion (HRDS≤7 points),"[1]; entire 3-month course, n=20, 8/20",40%
same,Patients with treatment response at study completion (reduction in HRDS-21 points ≥50%),"[1]; entire 3-month course, n=20, 11/20",55%
same,Patients with improvement in depressive symptoms by at least one category at study completion,"[1]; entire 3-month course, n=20, 17/20",85%
same,Median reduction of HDRS-21,[1]; entire 3-month treatment regimen with 2 treatments with nitrous oxide,11 HDRS-21 points
same,Dose-response relation (HDRS-21 decrease),[1]; week 2,−3.51 per 25% increase in dose
same,MADRS efficacy,[2],not significant
same,Results on the QIDS scale,[3]; 25% nitrous oxide,non-significant; also recorded: not statistically significant
same,Results on the QIDS scale,"[3]; 50% nitrous oxide, except at 2 weeks",not statistically significant
same,Effect on depressive symptoms in patients with TRMD (earlier study),[4],improved depressive symptoms; also recorded: rapid antidepressant effects
